{"source": "paper doi:10.64898/2025.12.10.692519v1", "about": "(biorxiv, 2025)", "experiment_in_all_cases": "cells", "key": {"786-O": {"test_system": "786-O", "conditions": "Homo sapiens, 786-0, 144 h, read-out: AB8939"}, "A-549": {"test_system": "A-549", "conditions": "Homo sapiens, A549, 144 h, read-out: AB8939"}, "A4573": {"test_system": "A4573", "conditions": "A4573, 144 h, read-out: AB8939"}, "ACHN": {"test_system": "ACHN", "conditions": "Homo sapiens, ACHN, 144 h, read-out: AB8939"}, "CCRF-CEM": {"test_system": "CCRF-CEM", "conditions": "Homo sapiens, CCRF-CEM, 144 h, read-out: AB8939"}, "DU-145": {"test_system": "DU-145", "conditions": "Homo sapiens, DU-145, 144 h, read-out: AB8939"}, "HEP-2": {"test_system": "HEP-2", "conditions": "Homo sapiens, HEp-2, 144 h, read-out: AB8939"}, "HGC-27": {"test_system": "HGC-27", "conditions": "Homo sapiens, HGC-27, 144 h, read-out: AB8939"}, "HL-60": {"test_system": "HL-60", "conditions": "Homo sapiens, HL-60, 144 h, read-out: AB8939"}, "HRT-18": {"test_system": "HRT-18", "conditions": "Homo sapiens, HRT-18, 144 h, read-out: AB8939"}, "HUT-78": {"test_system": "HUT-78", "conditions": "Homo sapiens, HuT78, 144 h, read-out: AB8939"}, "Karpas-299": {"test_system": "Karpas-299", "conditions": "Homo sapiens, KARPAS-299, 144 h, read-out: AB8939"}, "LnCaP": {"test_system": "LnCaP", "conditions": "Homo sapiens, LNCaP, 144 h, read-out: AB8939"}, "MCF-7": {"test_system": "MCF-7", "conditions": "Homo sapiens, MCF7, 144 h, read-out: AB8939"}, "MDA-MB-468": {"test_system": "MDA-MB-468", "conditions": "Homo sapiens, MDA-MB-468, 144 h, read-out: AB8939"}, "MESSA": {"test_system": "MESSA", "conditions": "Homo sapiens, MES-SA, 144 h, read-out: AB8939"}, "MOLM-14": {"test_system": "MOLM-14", "conditions": "Homo sapiens, MOLM-14, 144 h, read-out: AB8939"}, "NALM-6": {"test_system": "NALM-6", "conditions": "Homo sapiens, NALM-6, 144 h, read-out: AB8939"}, "NOMO-1": {"test_system": "NOMO-1", "conditions": "Homo sapiens, NOMO-1, 144 h, read-out: AB8939"}, "PANC-1": {"test_system": "PANC-1", "conditions": "Homo sapiens, PANC-1, 144 h, read-out: AB8939"}, "PC-3": {"test_system": "PC-3", "conditions": "Homo sapiens, PC-3, 144 h, read-out: AB8939"}, "PLC-PRF5": {"test_system": "PLC-PRF5", "conditions": "Homo sapiens, PLC-PRF-5, 144 h, read-out: AB8939"}, "REC-1": {"test_system": "REC-1", "conditions": "Homo sapiens, Rec1, 144 h, read-out: AB8939"}, "SK-N-MC": {"test_system": "SK-N-MC", "conditions": "Homo sapiens, SK-N-MC, 144 h, read-out: AB8939"}, "SW-872": {"test_system": "SW-872", "conditions": "Homo sapiens, SW872, 144 h, read-out: AB8939"}, "THP-1": {"test_system": "THP-1", "conditions": "Homo sapiens, THP-1, 144 h, read-out: AB8939"}, "Tov21G": {"test_system": "Tov21G", "conditions": "Homo sapiens, TOV21G, 144 h, read-out: AB8939"}, "U-118": {"test_system": "U-118", "conditions": "144 h, read-out: AB8939"}, "U2OS": {"test_system": "U2OS", "conditions": "Homo sapiens, U2OS, 144 h, read-out: AB8939"}}}
{"smiles": "CCOCc1ccc(C)c(Nc2ncc(-c3ccc(N4CCNC4=O)cc3)o2)c1", "note": "[AB8939]", "values": [{"measurement": "IC50", "setting": "786-O", "result": 87, "unit": "nM"}, {"measurement": "IC50", "setting": "A-549", "result": 1, "unit": "nM"}, {"measurement": "IC50", "setting": "A4573", "result": 3, "unit": "nM"}, {"measurement": "IC50", "setting": "ACHN", "result": 4, "unit": "nM"}, {"measurement": "IC50", "setting": "CCRF-CEM", "result": 1, "unit": "nM"}, {"measurement": "IC50", "setting": "DU-145", "result": 2, "unit": "nM"}, {"measurement": "IC50", "setting": "HEP-2", "result": 1, "unit": "nM"}, {"measurement": "IC50", "setting": "HGC-27", "result": 1, "unit": "nM"}, {"measurement": "IC50", "setting": "HL-60", "result": 14, "unit": "nM"}, {"measurement": "IC50", "setting": "HRT-18", "result": 1, "unit": "nM"}, {"measurement": "IC50", "setting": "HUT-78", "result": 4, "unit": "nM"}, {"measurement": "IC50", "setting": "Karpas-299", "result": 1, "unit": "nM"}, {"measurement": "IC50", "setting": "LnCaP", "result": 5, "unit": "nM"}, {"measurement": "IC50", "setting": "MCF-7", "result": 122, "unit": "nM"}, {"measurement": "IC50", "setting": "MDA-MB-468", "result": 14, "unit": "nM"}, {"measurement": "IC50", "setting": "MESSA", "result": 7, "unit": "nM"}, {"measurement": "IC50", "setting": "MOLM-14", "result": 14, "unit": "nM"}, {"measurement": "IC50", "setting": "NALM-6", "result": 1, "unit": "nM"}, {"measurement": "IC50", "setting": "NOMO-1", "result": 46, "unit": "nM"}, {"measurement": "IC50", "setting": "PANC-1", "result": 1, "unit": "nM"}, {"measurement": "IC50", "setting": "PC-3", "result": 8, "unit": "nM"}, {"measurement": "IC50", "setting": "PLC-PRF5", "result": 2, "unit": "nM"}, {"measurement": "IC50", "setting": "REC-1", "result": 4, "unit": "nM"}, {"measurement": "IC50", "setting": "SK-N-MC", "result": 1, "unit": "nM"}, {"measurement": "IC50", "setting": "SW-872", "result": 1, "unit": "nM"}, {"measurement": "IC50", "setting": "THP-1", "result": 49, "unit": "nM"}, {"measurement": "IC50", "setting": "Tov21G", "result": 8, "unit": "nM"}, {"measurement": "IC50", "setting": "U-118", "result": 1, "unit": "nM"}, {"measurement": "IC50", "setting": "U2OS", "result": 1, "unit": "nM"}]}
